Experimental data: article PMC3254824 (Biochemistry, 2011)

What was measured:
[1] = molecular target: T1, yThg1 (yeast Thg1, tRNA^His guanylyltransferase) (Saccharomyces cerevisiae, UniProt P53215); assay: single-turnover adenylylation kinetics, […]'-32P tRNA; format: biochemical; conditions: read-out: KDapp,NTP, adenylylation step, 15 μM enzyme, 10 mM MgCl2, pH 6.0, room temperature
T1 sequence (P53215 1-237): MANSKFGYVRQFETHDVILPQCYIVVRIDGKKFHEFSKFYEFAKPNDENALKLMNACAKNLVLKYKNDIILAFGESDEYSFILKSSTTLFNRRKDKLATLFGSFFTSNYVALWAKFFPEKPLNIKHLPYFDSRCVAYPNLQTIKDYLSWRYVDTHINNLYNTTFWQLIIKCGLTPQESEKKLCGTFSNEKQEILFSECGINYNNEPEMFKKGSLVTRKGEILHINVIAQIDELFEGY

[2] = molecular target: T1, yThg1 (yeast Thg1, tRNA^His guanylyltransferase); assay: single-turnover nucleotidyl transfer kinetics, gamma-32P ppp-tRNA; format: biochemical; conditions: read-out: KDapp,NTP, nucleotidyl transfer step, 15 μM enzyme, 10 mM MgCl2, pH 7.5, room temperature

Kd [1] | Kd [2] | SMILES
360 ± 80 µM |  | Nc1ncnc2c1ncn2[C@@H]1O[C@H](COP(=O)(O)OP(=O)(O)OP(=O)(O)O)[C@@H](O)[C@H]1O [ATP]
 | 21 ± 4 µM | Nc1nc2c(ncn2[C@@H]2O[C@H](COP(=O)(O)OP(=O)(O)OP(=O)(O)O)[C@@H](O)[C@H]2O)c(=O)[nH]1 [GTP]
